Test [1] deals with T1, Human CARM1 (PRMT4) (Homo sapiens, UniProt Q86X55).
T1 construct: Flag-CARM1-His was eluted with 200 ug/ml FLAG peptide in buffer A; made in house; host or cells: HEK 293F cells infected with recombinant baculovirus (pFastBacMam)
T1 sequence (Q86X55 1-585 isoform Q86X55-1): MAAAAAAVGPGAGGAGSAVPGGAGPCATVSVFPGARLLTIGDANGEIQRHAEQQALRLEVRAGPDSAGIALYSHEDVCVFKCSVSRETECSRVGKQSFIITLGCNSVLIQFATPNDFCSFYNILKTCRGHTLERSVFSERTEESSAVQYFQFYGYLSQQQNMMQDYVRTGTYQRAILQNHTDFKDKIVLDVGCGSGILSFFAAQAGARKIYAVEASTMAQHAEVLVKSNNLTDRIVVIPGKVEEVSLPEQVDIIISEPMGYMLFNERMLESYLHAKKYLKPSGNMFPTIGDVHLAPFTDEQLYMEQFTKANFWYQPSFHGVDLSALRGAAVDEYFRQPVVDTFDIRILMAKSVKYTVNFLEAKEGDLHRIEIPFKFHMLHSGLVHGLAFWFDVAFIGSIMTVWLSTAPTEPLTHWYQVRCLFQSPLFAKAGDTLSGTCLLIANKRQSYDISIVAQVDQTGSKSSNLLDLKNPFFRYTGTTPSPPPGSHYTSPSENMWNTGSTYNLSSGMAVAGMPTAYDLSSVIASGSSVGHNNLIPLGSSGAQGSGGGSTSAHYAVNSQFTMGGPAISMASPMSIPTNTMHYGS
The experiment in a line: CARM1 enzyme assay on peptide substrates (3H-SAM Flashplate). The conditions noted are these: Biochemical assay; CARM1 0.25 nM, 3H-SAM 30 nM, peptide 250 nM; read-out: Biochem IC50.

In test [2] the test system is asymmetric di-methyl PABP1 in RKO cells. The test is described as follows: RKO methylation assay: In Cell Western (ICW) for asymmetric di-methyl PABP1 (PABP1me2a). The conditions noted are these: Homo sapiens, RKO, 48 h, Cellular-based (PABP1me2a) ICW (In Cell Western) assay. The method in brief: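 In-cell western on compound-exposed RKO cells (48 hours): asymmetric di-methyl PABP1 detected by antibody at 800 nm, DNA content by DRAQ5 at 700 nm. Percent inhibition from signal ratios against DMSO (minimum) and 20 μM reference compound (maximum) wells; IC50 curves fitted from triplicates.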

Experimental findings from patent publication US20170305922A1, “CARM1 INHIBITORS AND USES THEREOF” (Epizyme, Inc., priority 2014, published 2017) are described below.

In the case of `CNC[C@@H](O)COc1ccc(Cl)c(-c2nc(-c3c(C)noc3C)c(C)c(N3CCN(C(=O)OC)CC3)n2)c1` [Example 216], the IC50 (commonly the concentration that inhibits the measured activity by half) in test [1] turned out to be 5.4 nM; in test [2], 415 nM.

On to `CNC[C@@H](O)COc1ccc(Cl)c(-c2nc(-c3c(C)noc3C)c(C)c(N3CC4(C3)CC(OC)(C(F)F)C4)n2)c1` [Example 217], for which the half-maximal inhibitory concentration (IC50) in test [1] worked out at 4.7 nM; in test [2] it was 101 nM.

As for `CNC[C@@H](O)COc1ccc(Cl)c(-c2nc(-c3c(C)noc3C)c(C)c(N3CC4(C3)CC(O)(C(F)F)C4)n2)c1` [Example 218], the IC50 in test [1] amounted to 6 nM; in test [2] it was 419 nM.

As for `CNC[C@@H](O)COc1ccc(Cl)c(-c2nc(-c3c(C)noc3C)c(C)c(N3CC4(CN(C(=O)OCC(F)(F)F)C4)C3)n2)c1` [Example 219], the IC50 in test [1] stood at 5.5 nM; in test [2], 129 nM.

In the case of `CNC[C@@H](O)COc1ccc(Cl)c(-c2nc(-c3c(C)noc3C)c(C)c(N3CC4(CN(C(=O)OCC(F)F)C4)C3)n2)c1` [Example 220], the values for the half-maximal inhibitory concentration (IC50) in test [1] and in test [2] were 4.2 nM and 221 nM, respectively.

Take `CNC[C@@H](O)COc1ccc(Cl)c(-c2nc(-c3c(C)noc3C)c(C)c(N3Cc4ccc(N5CCC5)nc4C3)n2)c1` [Example 221]: the IC50 in test [1] was found to be 1.5 nM; in test [2] it was 17 nM.

For `CNC[C@@H](O)COc1ccc(Cl)c(-c2nc(-c3c(C)noc3C)c(C)c(N3CCN(CC(F)F)CC3)n2)c1` [Example 224], the figures for the IC50 in test [1] and in test [2] were 6.8 nM and 330 nM, respectively.

With `CC[C@H]1CN(c2nc(-c3cc(OC[C@H](O)CNC)ccc3Cl)nc(-c3c(C)noc3C)c2C)CCN1CC(F)F` [Example 225], the IC50 in test [1] was found to be 9.3 nM; in test [2], 445 nM.

In the case of `CCc1noc(C)c1-c1nc(-c2cc(OC[C@H](O)CNC)ccc2Cl)nc(N2Cc3cccnc3C2)c1C` [Example 226], the half-inhibitory concentration (IC50) in test [1] was determined as 4.6 nM; in test [2], 134 nM.

`CCc1onc(C)c1-c1nc(-c2cc(OC[C@H](O)CNC)ccc2Cl)nc(N2CC3(CN(CC(F)(F)F)C3)C2)c1C` [Example 227]: the IC50 in test [1] was determined as 8 nM; in test [2], 59 nM.

On to `CNC[C@@H](O)COc1ccc(Cl)c(-c2nc(-c3c(C)noc3C)c(C)c(N3CC4(CC(OC(F)(F)F)C4)C3)n2)c1` [Example 228], for which the IC50 worked out at 4.7 nM in test [1] and 73 nM in test [2].

For `CNC[C@@H](O)COc1ccc(Cl)c(-c2nc(-c3c(C)noc3C)c(C)c(N3Cc4ccc(N5CC(OC)C5)nc4C3)n2)c1` [Example 229], the IC50 in test [1] came to 1.9 nM; in test [2], 14 nM.

As to `CCOC1CC2(C1)CN(c1nc(-c3cc(OC[C@H](O)CNC)ccc3Cl)nc(-c3c(C)noc3C)c1C)C2` [Example 231], the concentration for half-maximal inhibition (IC50) was determined as 4.6 nM in test [1] and 41 nM in test [2].

Turning to `CNC[C@@H](O)COc1ccc(Cl)c(-c2nc(-c3c(C)noc3C)c(C)c(N3CCN(C(=O)OCC(F)F)CC3)n2)c1` [Example 232], the IC50 turned out to be 4.9 nM in test [1] and 348 nM in test [2].

As for `CNC[C@@H](O)COc1ccc(Cl)c(-c2nc(-c3c(C)c(Cl)nn3C)c(C)c(N3CC4(CN(CC(F)(F)F)C4)C3)n2)c1` [Example 233], the figures for the IC50 in test [1] and in test [2] were 4.3 nM and 29 nM, respectively.

Take `CNC[C@@H](O)COc1ccc(Cl)c(-c2nc(-c3c(C)noc3C)c(C)c(N3CC4(CCC(OC(F)(F)F)CC4)C3)n2)c1` [Example 234]: the IC50 was determined as 6.1 nM in test [1] and 105 nM in test [2].

Take `CNC[C@@H](O)COc1ccc(Cl)c(-c2nc(-c3c(C)noc3C)c(C)c(N3Cc4nccc(OCC(F)F)c4C3)n2)c1` [Example 235]: the half-maximal inhibitory concentration (IC50) in test [1] came to 0.7 nM; in test [2] it was 54 nM.

As to `CNC[C@@H](O)COc1ccc(Cl)c(-c2nc(-c3c(C)noc3C)c(C)c(N3Cc4nccc(OC)c4C3)n2)c1` [Example 236], the half-inhibitory concentration (IC50) is 1.8 nM in test [1] and 63 nM in test [2].

`CNC[C@@H](O)COc1ccc(Cl)c(-c2nc(-c3c(C)noc3C)c(C)c(N3CC4=C(CN(C)CC4)C3)n2)c1` [Example 237]: the IC50 in test [1] was 0.6 nM; in test [2] it was 157 nM.

Consider `CNC[C@@H](O)COc1ccc(Cl)c(-c2nc(-c3c(C)c(Br)nn3C)c(C)c(N3CC4(CC(OC(F)(F)F)C4)C3)n2)c1` [Example 238], for which the values for the IC50 in test [1] and in test [2] were 5 nM and 116 nM, respectively.

`CNC[C@@H](O)COc1ccc(Cl)c(-c2nc(-c3c(C)noc3C)c(C)c(N3CC4(CC(OC(=O)OC)C4)C3)n2)c1` [Example 239]: the IC50 in test [1] was 4.7 nM; in test [2] it was 52 nM.

Take `CNC[C@@H](O)COc1ccc(Cl)c(-c2nc(-c3c(C)noc3C)c(C)c(N3CC(C)(C#N)C3)n2)c1` [Example 240]: the values for the IC50 in test [1] and in test [2] were 4.1 nM and 398 nM, respectively.

With `CNC[C@@H](O)COc1ccc(Cl)c(-c2nc(-c3c(C)noc3C)c(C)c(N3CC4(CC(OCCOC)C4)C3)n2)c1` [Example 241], the concentration for half-maximal inhibition (IC50) in test [1] amounted to 6.2 nM; in test [2], 84 nM.

For the compound `CNC[C@@H](O)COc1ccc(Cl)c(-c2nc(-c3c(Br)cnn3C)c(C)c(N3Cc4ccc(N5CCC5)nc4C3)n2)c1` [Example 243], the figures for the IC50 in test [1] and in test [2] were 0.8 nM and 37 nM, respectively.

Turning to `CNC[C@@H](O)COc1ccc(Cl)c(-c2nc(-c3c(I)cnn3C)c(C)c(N3Cc4cccnc4C3)n2)c1` [Example 244], the half-inhibitory concentration (IC50) in test [1] is 1.2 nM; in test [2], 141 nM.

With `CCOc1ccc2c(n1)CN(c1nc(-c3cc(OC[C@H](O)CNC)ccc3Cl)nc(-c3c(C)noc3C)c1C)C2` [Example 245], the results for the IC50 in test [1] and in test [2] were 2 nM and 38 nM, respectively.

Turning to `CNC[C@@H](O)COc1ccc(Cl)c(-c2nc(-c3c(C)noc3C)c(C)c(N3CC4(CC(O)C4)C3)n2)c1` [Example 246], the IC50 came to 6.7 nM in test [1] and 352 nM in test [2].

`CNC[C@@H](O)COc1ccc(Cl)c(-c2nc(-c3c(C)noc3C)c(C)c(N3CC4=C(CN(CC(F)(F)F)CC4)C3)n2)c1` [Example 247]: the values for the IC50 in test [1] and in test [2] were 4 nM and 62 nM, respectively.

`CNC[C@@H](O)COc1ccc(Cl)c(-c2nc(-c3c(C)noc3C)c(C)c(N3Cc4ccc(OCCOC)nc4C3)n2)c1` [Example 249]: the IC50 in test [1] is 2 nM; in test [2], 27 nM.

Turning to `CNC[C@@H](O)COc1ccc(Cl)c(-c2nc(-c3c(C)noc3C)c(C)c(N3CC4(CCC4(F)F)C3)n2)c1` [Example 250], the 50% inhibitory concentration (IC50) in test [1] was 3.94 nM; in test [2], 217 nM.

Regarding `CNC[C@@H](O)COc1ccc(Cl)c(-c2nc(-c3c(C)noc3C)c(C)c(N3CC(C)(COC)C3)n2)c1` [Example 251], the values for the IC50 in test [1] and in test [2] were 6.51 nM and 193 nM, respectively.

As to `CNC[C@@H](O)COc1ccc(Cl)c(-c2nc(-c3c(C)noc3C)c(C)c(N3CC(C)(CO)C3)n2)c1` [Example 252], the 50% inhibitory concentration (IC50) in test [1] is 8.01 nM; in test [2], 561 nM.

As to `CNC[C@@H](O)COc1ccc(Cl)c(-c2nc(-c3c(C)noc3C)c(C)c(N3Cc4ccc(O[C@@H]5CCOC5)nc4C3)n2)c1` [Example 253], the results for the IC50 in test [1] and in test [2] were 2.36 nM and 29.2 nM, respectively.

In the case of `CNC[C@@H](O)COc1ccc(Cl)c(-c2nc(-c3c(C)noc3C)c(C)c(N3Cc4ccc(O[C@H]5CCOC5)nc4C3)n2)c1` [Example 254], the IC50 in test [1] came out at 2.39 nM; in test [2], 37.1 nM.

With `CNC[C@@H](O)COc1ccc(Cl)c(-c2nc(-c3c(C)noc3C)c(C)c(N3CC4(CN(C(=O)OCCOC)C4)C3)n2)c1` [Example 255], the figures for the IC50 in test [1] and in test [2] were 7.22 nM and 377 nM, respectively.
